Measurements reported in patent EP0095833A2 (priority 1982, dated 1983).
Like-named read-outs stand apart in the source and are kept apart here.

Tests used:
VSV [1] = type: cell-based
Reovirus III = type: cell-based
VSV [2] = system: VSV
VSV [3] = type: cell-based; settings: HeLa cells, Figure 2
Polio virus = type: cell-based
Vaccinia virus = type: cell-based
VSV [4] = type: cell-based; remark: listed apart in the source
VSV [5] = type: cell-based; settings: 20 mM
VSV [6] = type: cell-based; settings: for Titer obtained (PFU/ml): pretreated for 2 hours, one-step growth (18 hours)
Sindbis virus = settings: BHK-21 cells; 0.1 mM chloroquine or 10 µg of cytochalasin B for thirty minutes before infection; Sindbis virus 5,000 PFU; 30 or 60 minutes at room temperature; cited from earlier work
[7] = system: vesicular stomatitis virus; settings: cited from earlier work
[8] = 20 mM NH4Cl from the second hour before infection to the eighteenth hour after, Figure 7 panel A
[9] = 20 mM NH4Cl from the second hour before inoculation to the seventh hour after, Figure 5 panel A
[10] = 20 mM, added from 2 hours before inoculation

Cl.N [NH4Cl, ammonium chloride]
infection (viral m RNAs and 42S mature RNA in cytoplasmic extracts) (VSV [1]; 20 mM NH4Cl from immediately after inoculation to the eighteenth hour after, Figure 7 panel B): slight reduction
42S viral RNA in cytoplasmic extracts (VSV [1]; [8]): do not contain
viral m RNAs in cytoplasmic extracts (VSV [1]; [8]): do not contain
amount of 42S mature viral RNA in cytoplasmic extracts (VSV [1]; 20 mM NH4Cl from the second hour before infection to the sixth hour after, 18 hours after infection, Figure 6 panel B): lower than in untreated cells
viral m RNAs (31S, 17S, 14.5S, 12S) in cytoplasmic extracts (VSV [1]; 20 mM NH4Cl from the second hour before infection to the sixth hour after, 18 hours after infection, versus untreated, Figure 6 panel B): more
complete virus (625S) in cytoplasmic extract (VSV [1]; [9]): large amount
viral cores (120s) in cytoplasmic extract (VSV [1]; [9]): negligible amount
development of Reovirus (Reovirus III): completely inhibits
development of Reovirus III, compared with Table I (Reovirus III; 20 mM): Identical results
virucidal effect against VSV (VSV [2]; 20 mM NH4Cl in PBS, incubated at 37°C, titrated at various times): no virucidal effect
lag period before rather normal viral RNA synthesis (VSV [3]; 20 mM NH4Cl from 2 hours before inoculation, withdrawal at the sixth hour after inoculation): 6 h
viral RNA synthesis (VSV [3]; 20 mM NH4Cl from 2 hours before to 18 hours after inoculation): seriously reduced
viral RNA synthesis (VSV [3]; 20 mM NH4Cl only added after inoculation, until 18 hours): strongly reduced
viral development of Polio virus (Polio virus; [10]): No action
Virions produced in infected 20mM NH4Cl* treated cells (Polio virus; BGM cells, Polio virus, 20 mM NH4Cl from 2 hours before inoculation, end of one step growth): 4.15 x 10^8PFU/ml
viral development of Vaccinia (Vaccinia virus; [10]): No action
Virions produced in infected 20mM NH4Cl* treated cells (Vaccinia virus; L cells, Vaccinia virus, 20 mM NH4Cl from 2 hours before inoculation, end of one step growth): 3.5 x 10^6PFU/ml
viral cores and virions in supernatant (VSV [4]; treated from the second hour before inoculation to the eighteenth hour after, Figure 3 panel B): neither viral cores nor virions
virions in supernatant (VSV [4]; treated from the second hour before to the sixth hour after inoculation, 18 hours, versus untreated, Figure 3 panel A): lower amount
viral cores in supernatant (VSV [4]; treated immediately after inoculation, 18 hours, versus untreated, Figure 3 panel B): lower level
development of VSV (VSV [5]; added from 2 hours before inoculation): completely inhibits
development of VSV, compared with Table I (VSV [5]; in L, BHK, and BGM cells): Identical results

Cc1cc2nc3ccc(N(C)C)cc3nc2cc1N.Cl [Neutral Red]
virucidal effect (VSV [2]; procedure of Example III, at these concentrations (70 µM and 100 µM)): no virucidal effect
Titer obtained (PFU/ml) (VSV [6]; 70 µM Neutral Red): 9.0 x 10^7 PFU/ml
growth of VSV (VSV [6]; 100 µM (29 µg/ml)): completely inhibits
Titer obtained (PFU/ml) (VSV [6]; 100 µM Neutral Red): 0 PFU/ml

CCN(CC)CCCC(C)Nc1ccnc2cc(Cl)ccc12 (centres unmarked) [chloroquine]
internalization by endocytosis of the virus (Sindbis virus): either enhanced or took place normally

C=C1[C@@H](C)[C@H]2[C@H](Cc3ccccc3)NC(=O)[C@]23OC(=O)/C=C/[C@H](O)CCC[C@@H](C)C/C=C/[C@H]3[C@@H]1O [cytochalasin B]
yields of VSV [7]: the same as untreated (control) cells
internalization by endocytosis of the virus (Sindbis virus): blocked
